Assay results reported in US20060079575A1, “Gamma-butyrolactone compound and pharmaceutical composition thereof” (priority 2003, published 2006).
In brackets after ≈: the same amount, converted by molar mass. Where two headings read alike, the source gives them in different places.

Tests used:
[1] = test system: MCF 7 (breast cancer cell line); test: MTT cytotoxicity assay, MCF 7; format: cell-based; conditions: Homo sapiens, MCF7, read-out: IC 50, MCF 7; 24 hr
Text: (§1) MTT assay is used to test the cytotoxic effect of BS-AE, BS-ME, BS-HE, BS-CE and BS-WE on human lung cancer cell line A549. […] According to the extraction process “BS-AE→BS-MWE→BS-CE” all of the crude extracts contain tumor inhibitory components. In order to further isolate the tumor inhibitory components from Bupleurum scorzonerifolium extract, a “Chromatography” step is further employed to isolate the BS-CE.
(§2) It is known from the experimental result of this invention, BS-AE containing the γ-butyrolactone compound and pharmaceutical composition thereof have significant growth inhibitory effect on human hepatoma, lung cancer, ovarian cancer, breast cancer, malignant glioblastoma and colorectal carcinoma cells.

β-tubulin = test: Western blot of soluble and particular β-tubulin, A549; format: cell-based, human; conditions: A549, FIG. 7
Text: FIG. 7 is a western blot analysis diagram showing expression of soluble (S) and particular (P) form of β-tubulin in A549 cells either untreated (C), treated with BS-AE, isochaihulactone (BS-8), Paclitaxel, or Vinblastine;
[…] is then used to analyze the change of cytoskeleton of tumor cell lines treated with Bupleurum scorzonerifolium extract. […] Then, a polymerization event is observed before and after the treatment of BS-AE.

[2] = test system: DBTRG-05MG (glioblastoma multiforme); test: MTT cytotoxicity assay, DBTRG-05MG; format: cell-based; conditions: Homo sapiens, read-out: IC 50, DBTRG-05MG, 24 hr
Text: as §1, §2

A549-T12 cells [3] = test: MTT assay A549-T12, 24 and 48 hrs (FIG. 10); format: cell-based, human; conditions: Paclitaxel-resistant lung cancer cell line
Procedure: FIGS. 10A through to 10C illustrate results of MTT assays for A549-T12 cells treated with BS-AE, isochaihulactone (BS-8), and isokaerophyllin (BS-15) respectively for 24 hrs and 48 hrs;
Besides, after BS-AE, BS-8, and BS-15 are added to Paclitaxel-resistant lung cancer cell line for 48 hours, viability ratio of tumor cells is reduced as illustrated in FIGS. 10A through to 10C. So, in view of IC50 or ED50, the cytotoxic effect of purified chaihulactone analog on the tumor cells is […] than BS-AE. […] Furthermore, a substantially low dose (1.5 μg/ml) of the compound is all that requires to induce apoptosis for the tumor cells.

telomerase [4] = test: Telomerase activity of treated tumor cell lines; format: cell-based; conditions: cell lines of human lung cancer, hepatoma, malignant glioblastoma, colorectal carcinoma
Procedure: A prominent cytotoxic effect was shown when the γ-butyrolactone heterocyclic compound and pharmaceutical composition thereof are added to the Paclitaxel-resistant tumor cell lines, indicating Bupleurum scorzonerifolium indeed contain active components for inhibiting tumor growth. The active components for inhibiting tumor growth refer to the novel compound and pharmaceutical composition thereof having a γ-core and having a Z or E configuration for its carbon 2(5) location at the core.

[5] = test system: HT29 (colon cancer cell line); test: MTT cytotoxicity assay, HT29; format: cell-based, human; conditions: 24 hr
Text: as §1, §2

p21 and p53 = test: Western blotting of p21 and p53, A549; format: cell-based, human
Text: FIG. 5 is a western blot analysis diagram showing the amount of tumor suppressors: p21 and p53 expressed in A 549 cells either untreated (B), treated with DMSO (D) or BS-AE, BS-ME, BS-WE, isochaihulactone (BS-1), or chaihulactone (BS-2) for 1 day (1D) or 3 days (3D);

[6] = test system: A549-T12 (taxol resistant A549 subline); test: MTT cytotoxicity assay, A549-T12; format: cell-based, human; conditions: 24 hr
[7] = test system: Hep G2 (Hepatocellular carcinoma); test: MTT cytotoxicity assay, Hep G2; format: cell-based; conditions: Homo sapiens, HepG2, read-out: IC 50, HepG2; heading: IC 50, HepG2; 24 hr
Text: as §1, §2

A549-T12 cells [8] = test: Annexin V-FLOUS/PI flow cytometry (apoptosis), A549-T12; format: cell-based, human; conditions: A549-T12, 8 μg/ml, 48 hours; untreated 6.8%
Text: FIGS. 9A through to 9D are cytograms showing the extent of cell apoptosis detected using flow cytometry for Paclitaxel-resistant human lung cancer cell lines (A549-T12 cells) either untreated, treated with BS-AE, isochalihulactone (BS-8), or isokaerophyllin ([…] fluorescence intensity of tumor cells bound with Annexin V-FLOUS antibodies; and Y-axis indicates fluorescence intensity of tumor cells bound with PI antibodies);
The following embodiments are described with Paclitaxel-resistant tumor cell A549-T12 (passage cultured from lung cancer cell line A549 cells with low concentration of Paclitaxel) as an example to test the effect of BS-AE and its pure compounds BS-8 and BS-15 (these represent isochaihulactone and chaihulactone analogues) on A549-T12 cells. Flow cytometry, drug toxicity test, and histological sections are adopted to evaluate cytotoxic effect of the γ-butyrolactone compound and pharmaceutical composition thereof on Paclitaxel-resistant tumor cells.
FIGS. 9A through to 9D are flow cytometry results illustrating a comparison of the change of Annexin V-FLOUS and PI for untreated group with that of the group treated with 100 nM of Paclitaxel, 30 μg/ml BS-AE, 8 μg/ml BS-8 and 8 μg/ml BS-15 to A549-T12. […]

[9] = test system: J5 (hepatocellular carcinoma); test: MTT cytotoxicity assay, J5; format: cell-based; conditions: Homo sapiens, read-out: IC 50, J 5; heading: IC 50, J 5; 24 hr
Text: as §1, §2

telomerase [10] = test: Inhibition of telomerase activity in Paclitaxel-resistant tumor cells; format: cell-based, human; conditions: Paclitaxel-resistant tumor cells (A549-T12)
Text: Furthermore, after crude Bupleurum scorzonerifolium is processed according to the above-mentioned manufacturing method, its tumor inhibitory effect is more prominent.

A549 cells [11] = test: Cell cycle by flow cytometry, A549; format: cell-based, human
Text: FIGS. 2A through to FIG. 2D illustrate the cell cycle peak change detected using flow cytometry for A549 cells treated with Bupleurum scorzonerifolium extracts: acetone extract (BS-AE), methanol extract (BS-ME) and water extract (BS-WE) isolated according to the extracting method of the invention;
FIG. 4 is a bar chart showing cell cycle changes detected using flow cytometry for A549 cells untreated, treated with BS-AE, isochaihulactone (BS-8), and Paclitaxel;
Furthermore, flow cytometry is employed to observe the changes in cell cycle before and after the addition of different extracts from Bupleurum scorzonerifolium to A549 cells. In FIGS. 2A through to 2D, X-axis represents chromosome numbers (2N, 4N, etc.) of tumor cells in contact with the antibody, Y-axis represents the fluorescent brightness of Fluorescein Isothiocyanate (FITC). […] This effect is most significant for BS-AE.

[12] = test system: OVCAR-3 (ovarian cancer cell line); test: MTT cytotoxicity assay, OVCAR-3; format: cell-based; conditions: Homo sapiens, OVCAR-3, read-out: IC 50, OVCAR-3; 24 hr
Text: as §1, §2

A549 cells [13] = test: Annexin V-FLOUS/PI flow cytometry (apoptosis), A549; format: cell-based, human; conditions: A549, 20 μM, cultured 48 hours; untreated 3.8%
Procedure: FIGS. 3A through to FIG. 3C are cytograms showing the extent of cell apoptosis detected using flow cytometry for A 549 cells either untreated, treated with 20 μM of isochalihulactone, or 60 μg/ml of BS-AE and cultured for 48 hrs (wherein X-axis indicates fluorescence intensity of tumor cells bound with Annexin V-FLOUS antibodies; and Y-axis indicates fluorescence intensity of tumor cells bound with PI antibodies);
In the example of using cell line A549, untreated A549 cells, A549 cells treated with 20 μM of Isochaihulactone and A549 cells treated with 60 μg/ml of BS-AE are cultured 48 hours before utilizing flow cytometry to detect the staining results between Annexin V-FLOUS and PI. In FIGS. 3A through to 3C, X-axis represents the fluorescent brightness of tumor cells with antibody Annexin V-FLOUS, and Y-axis represents the fluorescent brightness of tumor cells with antibody PI.

[14] = test system: A549 (lung cancer cell line); test: MTT cytotoxicity assay, A549; format: cell-based, human; conditions: 24 hr
Text: as §1, §2

[15] = test system: WI-38 (embryonic fibroblast cell line); test: MTT cytotoxicity assay, WI-38; format: cell-based; conditions: 24 hr

For COc1cc(/C=C2\C(=O)OC[C@@H]2Cc2ccc3c(c2)OCO3)cc(OC)c1OC [BS-8, Isochaihulactone], the IC50 [1] was 8 ± 0.8 µg/mL (≈ 20.1 µM), the “particular form (polymerized β-microtubule)” value (β-tubulin) was “increases” and the “soluble form (non-polymerized β-microtubule)” value (β-tubulin) was “significantly diminishes”. The IC50 [2] was 7.5 ± 1 µg/mL (≈ 18.8 µM), the “viability ratio of tumor cells” value (A549-T12 cells [3]) was “reduced” and the “reduction of telomerase activity vs untreated control” value (telomerase [4]) was 5 times. The IC50 ([5]; Homo sapiens, HT-29, read-out: IC 50, HT 29, heading: IC 50, HT 29) was 5 ± 0.8 µg/mL, the “expression level of tumor suppressor p21 and p53” value (p21 and p53) was “significant increase” and the IC50 ([6]; Homo sapiens, A549, read-out: IC 50, A549-T12, heading: IC 50, A549-T12) was 1.7 ± 0.3 µg/mL. For the same compound, the IC50 [7] was 5.5 ± 0.5 µg/mL (≈ 13.8 µM), the “tumor cells coupled to Annexin V” value (A549-T12 cells [8]) was 30.6% and the IC50 [9] was 3.5 ± 0.7 µg/mL (≈ 8.78 µM). The “effective concentration for inhibiting telomerase activity” value (telomerase [10]) was “about 1.2 μg/mL”, the cell cycle effect (A549 cells [11]) was “arrest at G2/M stage” and the IC50 [12] was 7.2 ± 1.2 µg/mL (≈ 18.1 µM). The “tumor cells coupled to Annexin V” value (A549 cells [13]) was 32.7% and the IC50 ([14]; Homo sapiens, A549, read-out: IC 50, A549) was 8 ± 0.8 µg/mL.
paclitaxel [Taxol, reference compound] was tested, and the IC50 ([5]; Taxol in nM, read-out: IC 50, HT 29) was 3 ± 0.5 nM, the IC50 ([6]; Taxol in nM, read-out: IC 50, A549-T12) was 20 ± 2.7 nM and the IC50 ([14]; Taxol in nM, read-out: IC 50, A549) was 4 ± 0.6 nM.
COc1ccc(/C=C2\C(=O)OC[C@@H]2Cc2ccc3c(c2)OCO3)cc1OC [BS-15, Isokaerophyllin] was tested, and the “viability ratio of tumor cells” value (A549-T12 cells [3]) was “reduced” and the “tumor cells coupled to Annexin V” value (A549-T12 cells [8]) was 23.1%.
COc1cc(/C=C2/C(=O)OC[C@@H]2Cc2ccc3c(c2)OCO3)cc(OC)c1OC [Component 3, Chaihulactone] was tested, and the “reduction of telomerase activity vs untreated control” value (telomerase [4]) was 5 times and the “expression level of tumor suppressor p21 and p53” value (p21 and p53) was “significant increase”.
N.N.[Cl][Pt][Cl] [Cisplatin, cisdiammine dichloroplatinum] was tested, and the “IC 50, WI 38” value [15] was 21300 ± 4500 µg/mL and the “IC 50, A549” value [14] was 17200 ± 2700 µg/mL.
